Experimental data reported in patent publication US10881108B2, “Method of protecting field corn from damage by a plant pathogen” (SUMITOMO CHEMICAL COMPANY, LIMITED, priority 2019, dated 2021).

Tests used:
Type in all cases: in vivo
Cercospora zeae-maydis [1] = test: Seed dipping, then grey leaf spot inoculation; plant length of aerial part; details: seed dipping 0.2 mg per seed, 200 g per hectare; for Plant length in treatment plot (A) / Treatment/control ratio (100 × A/B): 7 days from inoculation
Procedure: Seeds of three varieties of field corn were separately dipped in a mefentrifluconazole dilution liquid (prepared by diluting an aqueous suspension concentrate of mefentrifluconazole with water) so that the amount of mefentrifluconazole to be applied to each seed might be 0.2 mg. Then, the field corn seeds were sown to a pot filled with a soil at a sowing rate of 1,000,000 seeds per hectare. That is, the application rate of mefentrifluconazole was 200 g per hectare. Each field corn was incubated in a greenhouse for 12 days from the sowing, and then a pathogen of grey leaf spot (Cercospora zeae-maydis) was inoculated to the foliage of each field corn. Each field corn was incubated in a greenhouse for 7 days from the inoculation, and then plant length of the aerial part of each field corn was measured. The plant length is referred to as ‘the plant length in treatment plot’. As a control experiment, the same procedure was repeated except that dipping treatment with mefentrifluconazole dilution liquid and the inoculation of the pathogen were not conducted. The plant length obtained in the control experiment is referred to as ‘the plant length in control plot’. The same procedure of the example 4 was repeated except for replacing three varieties of field corn with a variety of popcorn, and two varieties of waxy corn.

Cercospora zeae-maydis [2] = test: Dripping onto first leaf, then grey leaf spot inoculation; plant length of aerial part; details: 100 g per hectare; for Plant length in treatment plot (A) / Treatment/control ratio (100 × A/B): dripped onto first leaf 0.1 mg per plant, 7 days from inoculation; for protection from the damage by the pathogen: dripped onto first leaf
Procedure: Four varieties of field corn were sown to a pot filled with a soil at a sowing rate of 1,000,000 seeds per hectare. Then each field corn was incubated for 7 days in a greenhouse. A mefentrifluconazole dilution liquid (prepared by diluting an aqueous suspension concentrate of mefentrifluconazole with water) is dripped onto the first leaf of field corn plants so that the amount of mefentrifluconazole to be applied to each plant might be 0.1 mg. That is, the application rate of mefentrifluconazole was 100 g per hectare. Five days after the application, a pathogen of grey leaf spot (Cercospora zeae-maydis) was inoculated to the foliage of each field corn. Each field corn was incubated in a greenhouse for 7 days from the inoculation, and then plant length of the aerial part of each field corn was measured. The plant length is referred to as ‘the plant length in treatment plot’. As a control experiment, the same procedure was repeated except that dripping treatment with mefentrifluconazole dilution liquid and the inoculation of the pathogen were not conducted. The plant length obtained in the control experiment is referred to as ‘the plant length in control plot’. The same procedure of the example 5 was repeated except for replacing four varieties of field corn with two varieties of popcorn, a variety of sweet corn, and two varieties of waxy corn.

Cercospora zeae-maydis [3] = test: Dripping onto primary leaf, then grey leaf spot inoculation; fresh weight of aerial part; details: dripped onto primary leaf 0.2 mg per plant, 200 g per hectare, 14 days from inoculation
Procedure: Field corn is sown to a pot filled with a soil at a sowing rate of 1,000,000 seeds per hectare. The field corn is incubated for 10 days in a greenhouse, and then mefentrifluconazole dilution liquid (prepared by diluting an aqueous suspension concentrate of mefentrifluconazole with water) is dripped onto the primary leaf of field corn so that the amount of mefentrifluconazole to be applied to each plant may be 0.2 mg. That is, the application rate of mefentrifluconazole is 200 g per hectare. On the next day of the application, a pathogen of grey leaf spot (Cercospora zeae-maydis) is inoculated to the foliage of field corn. The field corn is incubated in a greenhouse for 14 days from the inoculation, and then fresh weight of the aerial part of the field corn is measured. It is confirmed that the fresh weight is equivalent to that of the control where field corn is not treated with mefentrifluconazole and the pathogen is not inoculated (no-treatment-no-inoculation control) and is bigger than that of the control where field corn is not treated with mefentrifluconazole and the pathogen is inoculated (no-treatment-inoculation control). The same procedure of the example 3 is repeated except for replacing field corn with popcorn, sweet corn, or waxy corn. It is confirmed that the fresh weight of popcorn, sweet corn, or waxy corn is smaller than that of the corresponding no-treatment-no-inoculation control and is equivalent to that of the corresponding no-treatment-inoculation control.

Cercospora zeae-maydis [4] = test: Foliar spray on potted corn, then grey leaf spot inoculation; fresh weight of aerial part; details: foliar spray 500 g per hectare, 14 days from inoculation
Procedure: Field corn is sown to a pot filled with a soil. It is incubated for 7 days in a greenhouse. Mefentrifluconazole spray liquid (prepared by diluting an aqueous suspension concentrate of mefentrifluconazole with water) is uniformly sprayed onto the foliage of field corn at the amount of 200 L per hectare so that the application rate of mefentrifluconazole may be 500 g per hectare. On the next day of the spraying, a pathogen of grey leaf spot (Cercospora zeae-maydis) is inoculated to the foliage of field corn. The field corn is incubated in a greenhouse for 14 days from the inoculation, and then fresh weight of the aerial part of the field corn is measured. It is confirmed that the fresh weight is equivalent to that of the control where field corn is not treated with mefentrifluconazole and the pathogen is not inoculated (no-treatment-no-inoculation control) and is bigger than that of the control where field corn is not treated with mefentrifluconazole and the pathogen is inoculated (no-treatment-inoculation control). The same procedure of the example 1 is repeated except for replacing field corn with popcorn, sweet corn, or waxy corn. It is confirmed that the fresh weight of popcorn, sweet corn, or waxy corn is smaller than that of the corresponding no-treatment-no-inoculation control and is equivalent to that of the corresponding no-treatment-inoculation control.

Cercospora zeae-maydis [5] = test: Seed coating, then grey leaf spot inoculation; fresh weight of aerial part; details: seed coating 0.2 mg per seed, 20 g per hectare, 14 days from inoculation
Procedure: Seeds of field corn are coated with a mefentrifluconazole aqueous suspension concentrate so that the amount of mefentrifluconazole to be applied to each seed may be 0.2 mg. Then, the field corn seeds are sown to a pot filled with a soil at a sowing rate of 100,000 seeds per hectare. That is, the application rate of mefentrifluconazole is 20 g per hectare. Then, the field corn is incubated in a greenhouse for 10 days, followed by inoculating a pathogen of grey leaf spot (Cercospora zeae-maydis) to the foliage of field corn. The field corn is incubated in a greenhouse for 14 days from the inoculation, and then the fresh weight of the aerial part of the field corn is measured. It is confirmed that the fresh weight is equivalent to that of the control where field corn is not treated with mefentrifluconazole and the pathogen is not inoculated (no-treatment-no-inoculation control) and is bigger than that of the control where field corn is not treated with mefentrifluconazole and the pathogen is inoculated (no-treatment-inoculation control). The same procedure of the example 2 is repeated except for replacing field corn with popcorn, sweet corn, or waxy corn. It is confirmed that the fresh weight of popcorn, sweet corn, or waxy corn is smaller than that of the corresponding no-treatment-no-inoculation control and is equivalent to that of the corresponding no-treatment-inoculation control.

[6] = popcorn, sweet corn, or waxy corn

CC(O)(Cn1cncn1)c1ccc(Oc2ccc(Cl)cc2)cc1C(F)(F)F (stereo not drawn) [mefentrifluconazole]
Plant length in treatment plot (A) (Cercospora zeae-maydis [1]; Field corn/DKC5632): 58 cm
Treatment/control ratio (100 × A/B) (Cercospora zeae-maydis [1]; Field corn/DKC5632): 95
Plant length in treatment plot (A) (Cercospora zeae-maydis [1]; Field corn/Koshu): 63 cm
Treatment/control ratio (100 × A/B) (Cercospora zeae-maydis [1]; Field corn/Koshu): 105
Plant length in treatment plot (A) (Cercospora zeae-maydis [1]; Field corn/MAS40F): 61 cm
Treatment/control ratio (100 × A/B) (Cercospora zeae-maydis [1]; Field corn/MAS40F): 97
Plant length in treatment plot (A) (Cercospora zeae-maydis [1]; Popcorn/Yuki-pop): 45 cm
Treatment/control ratio (100 × A/B) (Cercospora zeae-maydis [1]; Popcorn/Yuki-pop): 80
Plant length in treatment plot (A) (Cercospora zeae-maydis [1]; Waxy corn/Ki-mochi): 30 cm
Treatment/control ratio (100 × A/B) (Cercospora zeae-maydis [1]; Waxy corn/Ki-mochi): 70
Plant length in treatment plot (A) (Cercospora zeae-maydis [1]; Waxy corn/Shiro-mochi): 51 cm
Treatment/control ratio (100 × A/B) (Cercospora zeae-maydis [1]; Waxy corn/Shiro-mochi): 86
protection of field corns compared with popcorn or waxy corns (Cercospora zeae-maydis [1]; Tables 1 and 2): protected much more effectively
Plant length in treatment plot (A) (Cercospora zeae-maydis [2]; Field corn/DKC5632): 63 cm
Treatment/control ratio (100 × A/B) (Cercospora zeae-maydis [2]; Field corn/DKC5632): 103
Plant length in treatment plot (A) (Cercospora zeae-maydis [2]; Field corn/Koshu): 65 cm
Treatment/control ratio (100 × A/B) (Cercospora zeae-maydis [2]; Field corn/Koshu): 108
Plant length in treatment plot (A) (Cercospora zeae-maydis [2]; Field corn/MAS40F): 64 cm
Treatment/control ratio (100 × A/B) (Cercospora zeae-maydis [2]; Field corn/MAS40F): 102
Plant length in treatment plot (A) (Cercospora zeae-maydis [2]; Field corn/Pioneer 2088): 62 cm
Treatment/control ratio (100 × A/B) (Cercospora zeae-maydis [2]; Field corn/Pioneer 2088): 103
Plant length in treatment plot (A) (Cercospora zeae-maydis [2]; Popcorn/Maru-pop): 45 cm
Treatment/control ratio (100 × A/B) (Cercospora zeae-maydis [2]; Popcorn/Maru-pop): 80
Plant length in treatment plot (A) (Cercospora zeae-maydis [2]; Popcorn/Yuki-pop): 53 cm
Treatment/control ratio (100 × A/B) (Cercospora zeae-maydis [2]; Popcorn/Yuki-pop): 84
Plant length in treatment plot (A) (Cercospora zeae-maydis [2]; Sweet corn/Rancher 82): 31 cm
Treatment/control ratio (100 × A/B) (Cercospora zeae-maydis [2]; Sweet corn/Rancher 82): 91
Plant length in treatment plot (A) (Cercospora zeae-maydis [2]; Waxy corn/Ki-mochi): 29 cm
Treatment/control ratio (100 × A/B) (Cercospora zeae-maydis [2]; Waxy corn/Ki-mochi): 67
Plant length in treatment plot (A) (Cercospora zeae-maydis [2]; Waxy corn/Shiro-mochi): 43 cm
Treatment/control ratio (100 × A/B) (Cercospora zeae-maydis [2]; Waxy corn/Shiro-mochi): 73
protection from the damage by the pathogen (Cercospora zeae-maydis [2]; each field corn (four varieties), Table 3): successfully protected
protection from the damage by the pathogen (Cercospora zeae-maydis [2]; popcorns, sweet corn and waxy corns, Table 4): not successfully protected
fresh weight of the aerial part compared with no-treatment-inoculation control (Cercospora zeae-maydis [3]; field corn): bigger
fresh weight of the aerial part compared with no-treatment-no-inoculation control (Cercospora zeae-maydis [3]; field corn): equivalent
fresh weight compared with no-treatment-inoculation control (Cercospora zeae-maydis [3]; [6]): equivalent
fresh weight compared with no-treatment-no-inoculation control (Cercospora zeae-maydis [3]; [6]): smaller
fresh weight of the aerial part compared with no-treatment-inoculation control (Cercospora zeae-maydis [4]; field corn): bigger
fresh weight of the aerial part compared with no-treatment-no-inoculation control (Cercospora zeae-maydis [4]; field corn): equivalent
fresh weight compared with no-treatment-inoculation control (Cercospora zeae-maydis [4]; [6]): equivalent
fresh weight compared with no-treatment-no-inoculation control (Cercospora zeae-maydis [4]; [6]): smaller
fresh weight of the aerial part compared with no-treatment-inoculation control (Cercospora zeae-maydis [5]; field corn): bigger
fresh weight of the aerial part compared with no-treatment-no-inoculation control (Cercospora zeae-maydis [5]; field corn): equivalent
fresh weight compared with no-treatment-inoculation control (Cercospora zeae-maydis [5]; [6]): equivalent
fresh weight compared with no-treatment-no-inoculation control (Cercospora zeae-maydis [5]; [6]): smaller
